Each compound was assayed on 3D7 P. falciparum strain (assay: P. falciparum 3D7 parasite proliferation assay (SYBR Green)). Conditions: Plasmodium falciparum, Erythrocyte; 3D7 P. falciparum infected human erythrocytes, 72 hours, SYBR Green fluorescence; read-out: Pf3D7 Activity.
Assay type: cell-based
Description: The following assay illustrates the invention without in any way limiting the scope of the invention. This parasite proliferation assay measures the increase in parasite DNA content using a DNA intercalating dye, SYBR Green®. 3D7 P. falciparum strain is grown in complete culturing media until parasitemia reaches 3% to 8% with O+ human erythrocytes. 20 μl of screening media is dispensed into 384 well assay plates. 50 nl of compounds of the invention (in DMSO), including antimalarial controls (mefloquine, pyrimethamine and artemisinin), are then transferred into the assay plates, as well as DMSO alone to serve as a negative control for inhibition. Then 30 μl of a suspension of a 3D7 P. falciparum infected erythrocytes in screening media is dispensed into the assay plates such that the final hematocrit is 2.5% with a final parasitemia of 0.3%. The plates are placed in a 37° C. incubator for 72 hours in a low oxygen environment containing 93% N2, 4% CO2, and 3% O2 gas mixture. 10 μl of lysis buffer (saponin, triton-X, EDTA) containing a 10× solution of SYBR Green […] in RPMI media is dispensed into the plates. The plates are lidded and kept at room temperature overnight for the lysis of the infected red blood cells. The fluorescence intensity is measured (excitation […], emission 530 nm) using the Envision™ system (Perkin Elmer). The percentage inhibition of 50%, EC50, is calculated for each compound.

Compared with `COC(=O)c1ccc2[nH]c(-c3cncc(C(=O)NCC(C)(C)N)n3)c(C)c2c1` [Example 48, Methyl 2-(6-((2-amino-2-methylpropyl)carbamoyl)pyrazin-2-yl)-3-methyl-1H-indole-5-carboxylate], `Cc1c(-c2cncc(C(=O)NCC(C)(C)N)n2)[nH]c2ccc(Br)cc12` [Example 74, N-(2-Amino-2-methylpropyl)-6-(5-bromo-3-methyl-1H-indol-2-yl)pyrazine-2-carboxamide] is lower in EC50: 0.01 to 0.1 µM for the first, less than 0.01 µM for the second.

First: Cc1c(-c2cncc(C(=O)NCC3(N)CCC3)n2)[nH]c2ccc(OC(F)(F)F)cc12 [Example 58, N-((1-aminocyclobutyl)methyl)-6-(3-methyl-5-(trifluoromethoxy)-1H-indol-2-yl)pyrazine-2-carboxamide]
Second: Cc1c(-c2cncc(C(=O)NCC3(N)CCOCC3)n2)[nH]c2ccc(OC(F)(F)F)cc12 [Example 61, N-((4-aminotetrahydro-2H-pyran-4-yl)methyl)-6-(3-methyl-5-(trifluoromethoxy)-1H-indol-2-yl)pyrazine-2-carboxamide]
The EC50 of the first is lower: less than 0.01 µM for the first, 0.01 to 0.1 µM for the second.

Compared with `Cc1c(-c2cncc(C(=O)NCC(C)(C)N)n2)[nH]c2ccc(CN)cc12` [Example 71, N-(2-amino-2-methylpropyl)-6-(5-(aminomethyl)-3-methyl-1H-indol-2-yl)pyrazine-2-carboxamide], `Cc1c(-c2cncc(C(=O)NCC(C)(C)N)n2)[nH]c2ccc(OC(F)F)cc12` [Example 70, N-(2-amino-2-methylpropyl)-6-(5-(difluoromethoxy)-3-methyl-1H-indol-2-yl)pyrazine-2-carboxamide] is lower in EC50: greater than 0.1 µM for the first, 0.01 to 0.1 µM for the second.

First: Cc1c(-c2cncc(C(=O)NCC(C)(C)O)n2)[nH]c2ccccc12 [Example 100, N-(2-hydroxy-2-methylpropyl)-6-(3-methyl-1H-indol-2-yl)pyrazine-2-carboxamide]
Second: Cc1c(-c2cncc(C(=O)NCCC(C)(C)N)n2)[nH]c2ccccc12 [Example 85, N-(3-amino-3-methylbutyl)-6-(3-methyl-1H-indol-2-yl)pyrazine-2-carboxamide]
The EC50 of the first is higher: greater than 0.1 µM for the first, 0.01 to 0.1 µM for the second.

`Cc1c(-c2cncc(C(=O)NC3CCC(N)C3)n2)[nH]c2ccccc12` (stereo not drawn) [Example 92, N-(3-aminocyclopentyl)-6-(3-methyl-1H-indol-2-yl)pyrazine-2-carboxamide] and `Cc1c(-c2cncc(C(=O)N[C@@H]3CCCC[C@@H]3N)n2)[nH]c2ccccc12` (racemic) [Example 98, (rac)-N-((1r,2s)-2-aminocyclohexyl)-6-(3-methyl-1H-indol-2-yl)pyrazine-2-carboxamide] cannot be ordered by EC50: greater than 0.1 µM for the first, greater than 0.1 µM for the second.

`CC(C)(N)CNC(=O)c1cncc(-c2cc3cc(OC(F)(F)F)ccc3[nH]2)n1` [Example 2, N-(2-Amino-2-methylpropyl)-6-(5-(trifluoromethoxy)-1H-indol-2-yl)pyrazine-2-carboxamide] and `CC(C)(N)CNC(=O)c1cncc(-c2cc3ccc(OC(F)(F)F)cc3[nH]2)n1` [Example 47, N-(2-amino-2-methylpropyl)-6-(6-(trifluoromethoxy)-1H-indol-2-yl)pyrazine-2-carboxamide] fall in the same range of EC50: 0.01 to 0.1 µM for the first, 0.01 to 0.1 µM for the second.

`Cc1c(-c2cncc(C(=O)NCC(C)(C)N)n2)[nH]c2cc(Cl)c(F)cc12` [Example 1, N-(2-amino-2-methylpropyl)-6-(6-chloro-5-fluoro-3-methyl-1H-indol-2-yl)pyrazine-2-carboxamide] and `Cc1c(-c2cncc(C(=O)NCC(C)(C)N)n2)[nH]c2cc(F)c(Cl)cc12` [Example 10, N-(2-amino-2-methylpropyl)-6-(5-chloro-6-fluoro-3-methyl-1H-indol-2-yl)pyrazine-2-carboxamide] cannot be ordered by EC50: less than 0.01 µM for the first, less than 0.01 µM for the second.

First: CC(C)(N)CNC(=O)c1cncc(-c2cc3cc(Cl)cc(F)c3[nH]2)n1 [Example 13, N-(2-amino-2-methylpropyl)-6-(5-chloro-7-fluoro-1H-indol-2-yl)pyrazine-2-carboxamide]
Second: CC(C)(N)CNC(=O)c1cncc(-c2cc3cc(F)c(O)cc3[nH]2)n1 [Example 110, N-(2-amino-2-methylpropyl)-6-(5-fluoro-6-hydroxy-1H-indol-2-yl)pyrazine-2-carboxamide]
The EC50 of the first is lower: 0.01 to 0.1 µM for the first, greater than 0.1 µM for the second. The first is the more potent here.

First: CC(C)(N)CNC(=O)c1cncc(-c2[nH]c3ccccc3c2Cl)n1 [Example 49, N-(2-amino-2-methylpropyl)-6-(3-chloro-1H-indol-2-yl)pyrazine-2-carboxamide]
Second: CC(C)(N)CNC(=O)c1cncc(-c2cc3ccccc3[nH]2)n1 [Example 35, N-(2-amino-2-methylpropyl)-6-(1H-indol-2-yl)pyrazine-2-carboxamide]
The EC50 of the first is lower: 0.01 to 0.1 µM for the first, greater than 0.1 µM for the second.

`Cc1c(-c2cncc(C(=O)NCC(N)C3CC3)n2)[nH]c2cc(Cl)c(F)cc12` (stereo not drawn) [Example 79, N-(2-amino-2-cyclopropylethyl)-6-(6-chloro-5-fluoro-3-methyl-1H-indol-2-yl)pyrazine-2-carboxamide] and `Cc1c(-c2cncc(C(=O)NCC3(N)CC(F)(F)C3)n2)[nH]c2cc(Cl)c(F)cc12` [Example 82, N-((1-amino-3,3-difluorocyclobutyl)methyl)-6-(6-chloro-5-fluoro-3-methyl-1H-indol-2-yl)pyrazine-2-carboxamide] fall in the same range of EC50: 0.01 to 0.1 µM for the first, 0.01 to 0.1 µM for the second.

`CC(C)(N)CNC(=O)c1cncc(-c2cc3ccncc3[nH]2)n1` [Example 43, N-(2-amino-2-methylpropyl)-6-(1H-pyrrolo[2,3-c]pyridin-2-yl)pyrazine-2-carboxamide] and `CC(C)(N)CNC(=O)c1cncc(-c2cc3cnc(Cl)cc3[nH]2)n1` [Example 40, N-(2-amino-2-methylpropyl)-6-(6-chloro-1H-pyrrolo[3,2-c]pyridin-2-yl)pyrazine-2-carboxamide] cannot be ordered by EC50: greater than 0.1 µM for the first, greater than 0.1 µM for the second.

`CC(C)(N)CNC(=O)c1cncc(-c2cc3cc(S(F)(F)(F)(F)F)ccc3[nH]2)n1` [Example 46, N-(2-amino-2-methylpropyl)-6-(5-(pentafluoro-λ^6-sulfaneyl)-1H-indol-2-yl)pyrazine-2-carboxamide] and `CC(C)(N)CNC(=O)c1cncc(-c2cc3cc(F)ccc3[nH]2)n1` [Example 27, N-(2-amino-2-methylpropyl)-6-(5-fluoro-1H-indol-2-yl)pyrazine-2-carboxamide] fall in the same range of EC50: 0.01 to 0.1 µM for the first, 0.01 to 0.1 µM for the second.

First: CC(C)(N)CNC(=O)c1cncc(-c2[nH]c3ccc(OC(F)(F)F)cc3c2Cl)n1 [Example 106, N-(2-Amino-2-methylpropyl)-6-(3-chloro-5-(trifluoromethoxy)-1H-indol-2-yl)pyrazine-2-carboxamide]
Second: Cc1c(-c2cncc(C(=O)N[C@H]3CC[C@H](N)CC3)n2)[nH]c2ccc(OC(F)(F)F)cc12 [Example 65, N-((1r,4r)-4-aminocyclohexyl)-6-(3-methyl-5-(trifluoromethoxy)-1H-indol-2-yl)pyrazine-2-carboxamide]
The EC50 of the first is lower: less than 0.01 µM for the first, 0.01 to 0.1 µM for the second. The first is the more potent here.

First: CC(C)(N)CNC(=O)c1cncc(-c2cc3ccc(C#N)cc3[nH]2)n1 [Example 34, N-(2-amino-2-methylpropyl)-6-(6-cyano-1H-indol-2-yl)pyrazine-2-carboxamide]
Second: COC(=O)c1ccc2cc(-c3cncc(C(=O)NCC(C)(C)N)n3)[nH]c2c1 [Example 29, Methyl 2-(6-((2-amino-2-methylpropyl)carbamoyl)pyrazin-2-yl)-1H-indole-6-carboxylate]
The EC50 of the first is higher: greater than 0.1 µM for the first, 0.01 to 0.1 µM for the second. The second is the more potent here.

`Cc1c(-c2cncc(C(=O)N[C@H]3COC[C@H]3N)n2)[nH]c2ccccc12` (racemic) [Example 99, (rac)-N-((3r,4s)-4-aminotetrahydrofuran-3-yl)-6-(3-methyl-1H-indol-2-yl)pyrazine-2-carboxamide] and `Cc1c(-c2cncc(C(=O)NCC3(N)COC3)n2)[nH]c2ccccc12` [Example 95, N-((3-aminooxetan-3-yl)methyl)-6-(3-methyl-1H-indol-2-yl)pyrazine-2-carboxamide] cannot be ordered by EC50: greater than 0.1 µM for the first, greater than 0.1 µM for the second.

First: Cc1c(-c2cncc(C(=O)NCC3(N)CCOCC3)n2)[nH]c2cc(Cl)c(F)cc12 [Example 80, N-((4-aminotetrahydro-2H-pyran-4-yl)methyl)-6-(6-chloro-5-fluoro-3-methyl-1H-indol-2-yl)pyrazine-2-carboxamide]
Second: Cc1c(-c2cncc(C(=O)NCC(C)(C)N)n2)[nH]c2cc(S(F)(F)(F)(F)F)ccc12 [Example 9, N-(2-amino-2-methylpropyl)-6-(3-methyl-6-(pentafluoro-[…]^6-sulfaneyl)-1H-indol-2-yl)pyrazine-2-carboxamide]
The EC50 of the first is higher: 0.01 to 0.1 µM for the first, less than 0.01 µM for the second.

Compared with `Cc1c(-c2cncc(C(=O)NCC(C)(C)N)n2)[nH]c2c1CCCC2` [Example 51, N-(2-amino-2-methylpropyl)-6-(3-methyl-4,5,6,7-tetrahydro-1H-indol-2-yl)pyrazine-2-carboxamide], `CC(C)(N)CNC(=O)c1cncc(-c2cc3sc(C(N)=O)cc3[nH]2)n1` [Example 108, 5-(6-((2-amino-2-methylpropyl)carbamoyl)pyrazin-2-yl)-4H-thieno[3,2-b]pyrrole-2-carboxamide] is higher in EC50: 0.01 to 0.1 µM for the first, greater than 0.1 µM for the second.

`CCOC(=O)c1cc2[nH]c(-c3cncc(C(=O)NCC(C)(C)N)n3)cc2s1` [Example 53, Ethyl 5-(6-((2-amino-2-methylpropyl)carbamoyl)pyrazin-2-yl)-4H-thieno[3,2-b]pyrrole-2-carboxylate] and `CC(C)(N)CNC(=O)c1cncc(-c2cc3cccc(Cl)c3[nH]2)n1` [Example 28, N-(2-amino-2-methylpropyl)-6-(7-chloro-1H-indol-2-yl)pyrazine-2-carboxamide] fall in the same range of EC50: 0.01 to 0.1 µM for the first, 0.01 to 0.1 µM for the second.
